From PubChem BioAssay AID1845210 (Molecular Pharmacology Branch, DTP, NCI, 2023)
pIC50: −log10 of the molar value.

Test system: NCI-H226 complex tumor spheroids, viability
Test: Anticancer human tumor NCI-H226 cell line growth inhibition;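 also: spheroids exposed to compound for 7 days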;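 as to viability, T/C: 100% = DMSO vehicle control viability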
Details: for pIC50: curve of first compound; for viability, T/C: stronger effect = lower value
How it was run: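 Complex spheroids of malignant cells with endothelial cells and mesenchymal stem cells; agents alone or combined, from near clinical Cmax (or 10 microM if unknown) down in half-log steps, 0.25% DMSO final.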

[1] = second compound 30 pM, first compound 0.0316 µM
[2] = second compound 30 pM, first compound 0.1 µM
[3] = second compound 30 pM, first compound 0.316 µM
[4] = second compound 30 pM, first compound 1 µM
[5] = second compound 30 pM, first compound 3.16 µM
[6] = second compound 30 pM, first compound 10 µM
[7] = second compound 94.9 pM, first compound 0.0316 µM
[8] = second compound 94.9 pM, first compound 0.1 µM
[9] = second compound 94.9 pM, first compound 0.316 µM
[10] = second compound 94.9 pM, first compound 1 µM
[11] = second compound 94.9 pM, first compound 3.16 µM
[12] = second compound 94.9 pM, first compound 10 µM
[13] = second compound 0.0003 µM, first compound 0.0316 µM
[14] = second compound 0.0003 µM, first compound 0.1 µM
[15] = second compound 0.0003 µM, first compound 0.316 µM
[16] = second compound 0.0003 µM, first compound 1 µM
[17] = second compound 0.0003 µM, first compound 3.16 µM
[18] = second compound 0.0003 µM, first compound 10 µM
[19] = second compound 0.000949 µM, first compound 0.0316 µM
[20] = second compound 0.000949 µM, first compound 0.1 µM
[21] = second compound 0.000949 µM, first compound 0.316 µM
[22] = second compound 0.000949 µM, first compound 1 µM
[23] = second compound 0.000949 µM, first compound 3.16 µM
[24] = second compound 0.000949 µM, first compound 10 µM
[25] = second compound 0.003 µM, first compound 0.0316 µM
[26] = second compound 0.003 µM, first compound 0.1 µM
[27] = second compound 0.003 µM, first compound 0.316 µM
[28] = second compound 0.003 µM, first compound 1 µM
[29] = second compound 0.003 µM, first compound 3.16 µM
[30] = second compound 0.003 µM, first compound 10 µM
[31] = second compound 1 µM, first compound 0.00949 µM
[32] = second compound 1 µM, first compound 0.03 µM
[33] = second compound 1 µM, first compound 0.0949 µM
[34] = second compound 1 µM, first compound 0.3 µM
[35] = second compound 1 µM, first compound 0.949 µM
[36] = second compound 1 µM, first compound 3 µM
[37] = second compound 3.16 µM, first compound 0.00949 µM
[38] = second compound 3.16 µM, first compound 0.03 µM
[39] = second compound 3.16 µM, first compound 0.0949 µM
[40] = second compound 3.16 µM, first compound 0.3 µM
[41] = second compound 3.16 µM, first compound 0.949 µM
[42] = second compound 3.16 µM, first compound 3 µM
[43] = second compound 10 µM, first compound 0.00949 µM
[44] = second compound 10 µM, first compound 0.03 µM
[45] = second compound 10 µM, first compound 0.0949 µM
[46] = second compound 10 µM, first compound 0.3 µM
[47] = second compound 10 µM, first compound 0.949 µM
[48] = second compound 10 µM, first compound 3 µM
[49] = second compound 31.6 µM, first compound 0.00949 µM
[50] = second compound 31.6 µM, first compound 0.03 µM
[51] = second compound 31.6 µM, first compound 0.0949 µM
[52] = second compound 31.6 µM, first compound 0.3 µM
[53] = second compound 31.6 µM, first compound 0.949 µM
[54] = second compound 31.6 µM, first compound 3 µM
[55] = second compound 100 µM, first compound 0.00949 µM
[56] = second compound 100 µM, first compound 0.03 µM
[57] = second compound 100 µM, first compound 0.0949 µM
[58] = second compound 100 µM, first compound 0.3 µM
[59] = second compound 100 µM, first compound 0.949 µM
[60] = second compound 100 µM, first compound 3 µM

With CC(C)n1c(=O)n(C)c2cnc3cc(F)c(-c4ccc(OCCCN5CCCCC5)nc4)cc3c21 + COc1cc2c(cc1O)CCNC21CSC2c3c(OC(C)=O)c(C)c4c(c3C(COC1=O)N1C(O)C3Cc5cc(C)c(OC)c(O)c5C(C21)N3C)OCO4 the pIC50 (second compound 30 pM) was 5.01, the pIC50 (second compound 94.9 pM) was 5.17 and the pIC50 (second compound 0.0003 µM) was 5.16. The pIC50 (second compound 0.000949 µM) was 5.17, the pIC50 (second compound 0.003 µM) was greater than 7.50 and the viability, T/C [1] was 110%. It also gave a viability, T/C [2] of 102%, a viability, T/C [3] of 121% and a viability, T/C [4] of 110%. The viability, T/C [5] was 91%, the viability, T/C [6] was 49.4% and the viability, T/C [7] was 108%. For the same molecule, the viability, T/C [8] was 102%, the viability, T/C [9] was 112% and the viability, T/C [10] was 103%. The viability, T/C [11] was 90.4%, the viability, T/C [12] was 29.2% and the viability, T/C [13] was 107%. For the same molecule, the viability, T/C [14] was 125%, the viability, T/C [15] was 122% and the viability, T/C [16] was 102%. For the same molecule, the viability, T/C [17] was 102%, the viability, T/C [18] was 27.4% and the viability, T/C [19] was 98.2%. It also gave a viability, T/C [20] of 103%, a viability, T/C [21] of 104% and a viability, T/C [22] of 120%. It also gave a viability, T/C [23] of 97.4%, a viability, T/C [24] of 25.4% and a viability, T/C [25] of 1.2%. For the same molecule, the viability, T/C [26] was 2.1%, the viability, T/C [27] was 1.2% and the viability, T/C [28] was 3.57%. The viability, T/C [29] was 1.96% and the viability, T/C [30] was 1%.

In the case of COc1ccc([C@@H](O)c2cc(-c3ncnc4cc(N5CCOCC5)ccc34)c(F)cc2Cl)nn1 + COc1cc2c(cc1O)CCNC21CSC2c3c(OC(C)=O)c(C)c4c(c3C(COC1=O)N1C(O)C3Cc5cc(C)c(OC)c(O)c5C(C21)N3C)OCO4, the pIC50 (second compound 30 pM) was 5.20, the pIC50 (second compound 94.9 pM) was 5.40 and the pIC50 (second compound 0.0003 µM) was 5.37. For the same molecule, the pIC50 (second compound 0.000949 µM) was 6.12, the pIC50 (second compound 0.003 µM) was greater than 7.50 and the viability, T/C [1] was 115%. It also gave a viability, T/C [2] of 108%, a viability, T/C [3] of 81.2% and a viability, T/C [4] of 80.5%. For the same molecule, the viability, T/C [5] was 58%, the viability, T/C [6] was 43.6% and the viability, T/C [7] was 99.8%. For the same molecule, the viability, T/C [8] was 105%, the viability, T/C [9] was 106% and the viability, T/C [10] was 76.5%. For the same molecule, the viability, T/C [11] was 54.6%, the viability, T/C [12] was 43.5% and the viability, T/C [13] was 126%. For the same molecule, the viability, T/C [14] was 130%, the viability, T/C [15] was 122% and the viability, T/C [16] was 95.4%. For the same molecule, the viability, T/C [17] was 54.7%, the viability, T/C [18] was 37.5% and the viability, T/C [19] was 107%. For the same molecule, the viability, T/C [20] was 112%, the viability, T/C [21] was 93.6% and the viability, T/C [22] was 36.4%. For the same molecule, the viability, T/C [23] was 0.51%, the viability, T/C [24] was 0.24% and the viability, T/C [25] was 1.01%. The viability, T/C [26] was 0.79%, the viability, T/C [27] was 0.98% and the viability, T/C [28] was 0.69%. It also gave a viability, T/C [29] of 0.74% and a viability, T/C [30] of 1.08%.

Molecule CNCc1ccc(-c2cc(-c3nc(-c4ccc(S(=O)(=O)C(C)C)cc4)cnc3N)on2)cc1 + Cn1nnc2c(C(N)=O)ncn2c1=O has a pIC50 (second compound 1 µM) of 6.12, a pIC50 (second compound 3.16 µM) of 6.14 and a pIC50 (second compound 10 µM) of 6.12. The pIC50 (second compound 31.6 µM) was 5.99, the pIC50 (second compound 100 µM) was 5.86 and the viability, T/C [31] was 110%. It also gave a viability, T/C [32] of 125%, a viability, T/C [33] of 138% and a viability, T/C [34] of 140%. For the same molecule, the viability, T/C [35] was 30.7%, the viability, T/C [36] was 0.26% and the viability, T/C [37] was 96.1%. It also gave a viability, T/C [38] of 119%, a viability, T/C [39] of 127% and a viability, T/C [40] of 134%. For the same molecule, the viability, T/C [41] was 27.6%, the viability, T/C [42] was 0.51% and the viability, T/C [43] was 117%. It also gave a viability, T/C [44] of 117%, a viability, T/C [45] of 131% and a viability, T/C [46] of 128%. For the same molecule, the viability, T/C [47] was 31.8%, the viability, T/C [48] was 0.23% and the viability, T/C [49] was 110%. It also gave a viability, T/C [50] of 117%, a viability, T/C [51] of 144% and a viability, T/C [52] of 123%. For the same molecule, the viability, T/C [53] was 53.7%, the viability, T/C [54] was 1.75% and the viability, T/C [55] was 119%. For the same molecule, the viability, T/C [56] was 125%, the viability, T/C [57] was 123% and the viability, T/C [58] was 114%. It also gave a viability, T/C [59] of 73.3% and a viability, T/C [60] of 0.35%.

Molecule Cn1ncnc1[C@H]1c2n[nH]c(=O)c3cc(F)cc(c23)N[C@@H]1c1ccc(F)cc1 + Cn1nnc2c(C(N)=O)ncn2c1=O has a pIC50 (second compound 1 µM) of less than 5.52, a pIC50 (second compound 3.16 µM) of less than 5.52 and a pIC50 (second compound 10 µM) of less than 5.52. For the same molecule, the pIC50 (second compound 31.6 µM) was less than 5.52, the pIC50 (second compound 100 µM) was less than 5.52 and the viability, T/C [31] was 101%. It also gave a viability, T/C [32] of 103%, a viability, T/C [33] of 99.4% and a viability, T/C [34] of 91.2%. The viability, T/C [35] was 85.8%, the viability, T/C [36] was 97.8% and the viability, T/C [37] was 105%. For the same molecule, the viability, T/C [38] was 55.1%, the viability, T/C [39] was 94.8% and the viability, T/C [40] was 85.6%. The viability, T/C [41] was 93.1%, the viability, T/C [42] was 105% and the viability, T/C [43] was 108%. The viability, T/C [44] was 89.9%, the viability, T/C [45] was 86.8% and the viability, T/C [46] was 88.6%. It also gave a viability, T/C [47] of 89.5%, a viability, T/C [48] of 97.5% and a viability, T/C [49] of 101%. It also gave a viability, T/C [50] of 95.2%, a viability, T/C [51] of 96.4% and a viability, T/C [52] of 91.8%. The viability, T/C [53] was 82.3%, the viability, T/C [54] was 90.7% and the viability, T/C [55] was 106%. The viability, T/C [56] was 108%, the viability, T/C [57] was 95.8% and the viability, T/C [58] was 87.1%. The viability, T/C [59] was 100% and the viability, T/C [60] was 93.5%.

O=C(c1cc(Cc2n[nH]c(=O)c3ccccc23)ccc1F)N1CCN(C(=O)C2CC2)CC1 + Cn1nnc2c(C(N)=O)ncn2c1=O was tested, and the pIC50 (second compound 1 µM) was less than 4.52, the pIC50 (second compound 3.16 µM) was less than 4.52 and the pIC50 (second compound 10 µM) was less than 4.52. For the same molecule, the pIC50 (second compound 31.6 µM) was less than 4.52, the pIC50 (second compound 100 µM) was less than 4.52 and the viability, T/C [33] was 99.9%. It also gave a viability, T/C [34] of 99.8%, a viability, T/C [35] of 107% and a viability, T/C [36] of 104%. For the same molecule, the viability, T/C (second compound 1 µM, first compound 9.49 µM) was 99.2%, the viability, T/C (second compound 1 µM, first compound 30 µM) was 86.4% and the viability, T/C [39] was 105%. For the same molecule, the viability, T/C [40] was 96.7%, the viability, T/C [41] was 105% and the viability, T/C [42] was 95.4%. The viability, T/C (second compound 3.16 µM, first compound 9.49 µM) was 81.9%, the viability, T/C (second compound 3.16 µM, first compound 30 µM) was 80.3% and the viability, T/C [45] was 112%. The viability, T/C [46] was 104%, the viability, T/C [47] was 95.1% and the viability, T/C [48] was 101%. The viability, T/C (second compound 10 µM, first compound 9.49 µM) was 84.6%, the viability, T/C (second compound 10 µM, first compound 30 µM) was 77.3% and the viability, T/C [51] was 98.3%. The viability, T/C [52] was 101%, the viability, T/C [53] was 110% and the viability, T/C [54] was 95.1%. It also gave a viability, T/C (second compound 31.6 µM, first compound 9.49 µM) of 84.6%, a viability, T/C (second compound 31.6 µM, first compound 30 µM) of 82% and a viability, T/C [57] of 114%. It also gave a viability, T/C [58] of 113%, a viability, T/C [59] of 125% and a viability, T/C [60] of 99.3%. For the same molecule, the viability, T/C (second compound 100 µM, first compound 9.49 µM) was 97.8% and the viability, T/C (second compound 100 µM, first compound 30 µM) was 80.5%.
